Assay [1] addresses Protein O-GlcNAcase (Homo sapiens) (UniProt O60502). Description: Inhibition of human family 84 O-GLcNAcase.
The species entered for the next assay is Homo sapiens. Description: Inhibition of human family 20 beta-hexosaminidase.
Assay [2] in a line: Ratio of human 84 O-GLcNAcase to Vibrio cholerae NagZ.
For assay [3], the target named is T1, Beta-hexosaminidase (Vibrio cholerae serotype O1 (strain ATCC 39315 / El Tor Inaba N16961)) (UniProt Q9KU37).
T1 sequence (whole entry): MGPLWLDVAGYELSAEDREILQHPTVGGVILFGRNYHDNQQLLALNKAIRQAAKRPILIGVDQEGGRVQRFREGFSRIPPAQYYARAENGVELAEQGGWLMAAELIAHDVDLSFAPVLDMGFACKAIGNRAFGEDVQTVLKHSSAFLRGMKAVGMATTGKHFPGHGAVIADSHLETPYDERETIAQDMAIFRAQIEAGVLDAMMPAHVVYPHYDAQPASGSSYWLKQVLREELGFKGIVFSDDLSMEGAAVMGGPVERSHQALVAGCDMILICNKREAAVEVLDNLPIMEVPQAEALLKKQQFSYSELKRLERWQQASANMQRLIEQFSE
In words: Inhibition of Vibrio cholerae NagZ.

The nature of assay [4]: Selectivity for Vibrio cholerae NagZ over human family 84 O-GLcNAcas.
The nature of assay [5]: Selectivity for Vibrio cholerae NagZ over human family 20 beta-hexosaminidase.
Assay [6] deals with Escherichia coli. In words: Antimicrobial activity against ampD deficient Escherichia coli transfected with pCF1 by serial dilution method. Format: functional.
Assay [7] relates to Escherichia coli. In words: Antimicrobial activity against ampD deficient Escherichia coli transfected with pCF1 in medium containing EtbuPUG by serial dilution method. Format: functional.
In assay [8] the test system is Escherichia coli. Description: Antimicrobial activity against wild type Escherichia coli by serial dilution method. Format: functional.
Assay [9] concerns Escherichia coli. In words: Antimicrobial activity against ampD deficient Escherichia coli by serial dilution method. The class given is functional.
For assay [10], the system named is Escherichia coli. In words: Antimicrobial activity against wild type EtbuPUG treated Escherichia coli transfected with pCF1 by serial dilution method. Format: functional.
Assay [11] deals with Escherichia coli. Description: Antimicrobial activity against wild type Escherichia coli in medium containing EtbuPUG by serial dilution method. Format: functional.
Assay [12] has as its system Escherichia coli. In words: Antimicrobial activity against ampD deficient Escherichia coli in medium containing EtbuPUG by serial dilution method. The class given is functional.
Assay [13] has as its system Escherichia coli. Description: Antimicrobial activity against wild type Escherichia coli transfected with pCF1 by serial dilution method.
Assay [14] relates to Escherichia coli. Description: Antimicrobial activity against ampD deficient Escherichia coli transfected with pCF1 in medium containing EtbuPUG by agar diffusion assay. Format: functional.
The subject of assay [15] is Escherichia coli. In words: Antimicrobial activity against ampD deficient Escherichia coli transfected with pCF1 by agar diffusion assay. The class given is functional.
For assay [16], the system named is Escherichia coli. Description: Antimicrobial activity against wild type Escherichia coli transfected with pCF1 in medium containing EtbuPUG by agar diffusion assay. The class given is functional.
The test system of assay [17] is Escherichia coli. Description: Antimicrobial activity against wild type Escherichia coli transfected with pCF1 by agar diffusion assay. Format: functional.
The nature of assay [18]: Inhibition of bovine family 20 beta-hexosaminidase. Also on record: species or system Bos taurus.

Each structure is given as a SMILES string. Converted amounts (≈) assume the structure as drawn.

Protein O-GlcNAcase (Homo sapiens), sequence (O60502 whole entry, looked up): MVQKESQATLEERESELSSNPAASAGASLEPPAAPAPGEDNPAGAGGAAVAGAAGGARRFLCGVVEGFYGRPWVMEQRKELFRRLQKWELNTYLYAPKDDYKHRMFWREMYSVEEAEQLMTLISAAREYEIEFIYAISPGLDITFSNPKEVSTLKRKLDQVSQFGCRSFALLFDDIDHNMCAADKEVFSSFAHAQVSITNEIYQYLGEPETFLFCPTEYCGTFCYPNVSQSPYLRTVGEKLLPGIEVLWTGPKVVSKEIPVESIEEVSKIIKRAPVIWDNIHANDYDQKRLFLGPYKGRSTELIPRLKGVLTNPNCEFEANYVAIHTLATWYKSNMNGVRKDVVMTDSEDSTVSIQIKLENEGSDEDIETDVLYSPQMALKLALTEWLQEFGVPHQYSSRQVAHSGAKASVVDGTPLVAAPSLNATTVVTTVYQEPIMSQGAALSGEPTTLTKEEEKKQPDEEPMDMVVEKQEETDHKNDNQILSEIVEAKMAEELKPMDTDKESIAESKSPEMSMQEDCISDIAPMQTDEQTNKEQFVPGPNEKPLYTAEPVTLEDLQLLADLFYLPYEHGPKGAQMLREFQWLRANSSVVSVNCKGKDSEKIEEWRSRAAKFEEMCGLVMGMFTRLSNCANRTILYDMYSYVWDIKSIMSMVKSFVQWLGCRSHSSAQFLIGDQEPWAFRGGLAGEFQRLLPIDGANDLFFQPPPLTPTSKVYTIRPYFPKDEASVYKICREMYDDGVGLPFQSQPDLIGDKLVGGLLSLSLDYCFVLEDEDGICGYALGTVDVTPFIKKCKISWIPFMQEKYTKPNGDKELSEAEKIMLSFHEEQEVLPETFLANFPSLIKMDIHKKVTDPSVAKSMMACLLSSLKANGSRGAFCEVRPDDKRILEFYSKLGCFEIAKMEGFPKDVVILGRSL

Take `CCC(=O)N[C@H]1/C(=N/OC(=O)Nc2ccccc2)O[C@H](CO)[C@@H](O)[C@@H]1O`: the Ki (in [1]; in the assay listed under Homo sapiens) was 1.2 µM in each case. Further, the Selectivity ratio in assay [2] was determined as 7.5. Further, in assay [3], the Kinact was 0.16 µM.

On to `CCC(CC)C(=O)N[C@H]1/C(=N/OC(=O)Nc2ccccc2)O[C@H](CO)[C@@H](O)[C@@H]1O`, for which the Ki in assay [1] was 337 µM; in the assay filed under Homo sapiens, greater than 3000 µM. Also, the figures for the Selectivity ratio in assay [4], in [2] and in assay [5] were 100, 109 and 100, respectively. In [3], this molecule showed a Kinact of 3.1 µM.

As to `CCCCCC(=O)N[C@H]1/C(=N/OC(=O)Nc2ccccc2)O[C@H](CO)[C@@H](O)[C@@H]1O`, the figures for the inhibition constant (Ki) (in assay [1]; in the assay listed under Homo sapiens) were 220 µM and greater than 900 µM, respectively. Further, the Selectivity ratio in assay [2] was 33. The molecule further showed a Kinact in assay [3] of 6.5 µM.

`CC(=O)N[C@H]1/C(=N/O)O[C@H](CO)[C@@H](O)[C@@H]1O`: the Ki in [1] was found to be 6.4 µM. In addition, the Selectivity ratio in assay [2] was found to be 29. In assay [3], this molecule gave a Kinact of 0.22 µM.

Take `CO/N=C(\C(=O)N[C@@H]1C(=O)N2C(C(=O)O)=C(CSc3nc(=O)c(O)nn3C)CS[C@H]12)c1csc(N)n1` [CEFTRIAXONE]: the MIC against Escherichia coli [6] was 128 µg/mL (≈ 231 µM); against Escherichia coli [7], 32 µg/mL (≈ 57.7 µM); with Escherichia coli [8] it was less than 1 µg/mL; in the assay on Escherichia coli [9], less than 2 µg/mL; against Escherichia coli [10], 16 µg/mL (≈ 28.9 µM); against Escherichia coli [11], less than 1 µg/mL. Further, the MIC was less than 2 µg/mL in the assay with Escherichia coli [12] and 32 µg/mL (≈ 57.7 µM) with Escherichia coli [13].

`CC(C)(O/N=C(\C(=O)N[C@@H]1C(=O)N2C(C(=O)[O-])=C(C[n+]3ccccc3)CS[C@H]12)c1csc(N)n1)C(=O)O` [CEFTAZIDIME]: the MIC against Escherichia coli [6] is 256 µg/mL (≈ 468 µM); in the assay on Escherichia coli [7], 64 µg/mL (≈ 117 µM); against Escherichia coli [8] it was 1 µg/mL (≈ 1.83 µM); in the assay on Escherichia coli [9], less than 2 µg/mL; with Escherichia coli [10] it was 32 µg/mL (≈ 58.5 µM); in the assay with Escherichia coli [11], 1 µg/mL (≈ 1.83 µM). For the same molecule, the MIC in the assay with Escherichia coli [12] is less than 2 µg/mL; in the assay with Escherichia coli [13], 64 µg/mL (≈ 117 µM).

With `CCCCC(=O)N[C@H]1/C(=N/OC(=O)Nc2ccccc2)O[C@H](CO)[C@@H](O)[C@@H]1O`, the Ki worked out at 40 µM in [1] and 220 µM in the assay filed under Homo sapiens. In assay [2], the Selectivity ratio came to 121. Further, the Kinact in assay [3] was 0.33 µM.

On to `CO/N=C(\C(=O)N[C@@H]1C(=O)N2C(C(=O)O)=C(COC(C)=O)CS[C@H]12)c1csc(N)n1` [CEFOTAXIME], for which the MIC against Escherichia coli [6] was 128 µg/mL (≈ 281 µM); with Escherichia coli [7], 64 µg/mL (≈ 141 µM); with Escherichia coli [8] it was 1 µg/mL (≈ 2.2 µM); against Escherichia coli [9] it was less than 2 µg/mL; in the assay with Escherichia coli [10], 16 µg/mL (≈ 35.1 µM); against Escherichia coli [11], 1 µg/mL (≈ 2.2 µM). In addition, the values for the MIC against Escherichia coli [12] and with Escherichia coli [13] were less than 2 µg/mL and 64 µg/mL (≈ 141 µM), respectively. In addition, the “inhibition zone (IZ)” value in the assay on Escherichia coli [14] is 9 mm; in the assay with Escherichia coli [15], 7.1 mm; with Escherichia coli [16], 12.9 mm; in the assay on Escherichia coli [17] it was 10.3 mm.

As for `CO[C@@]1(NC(=O)Cc2cccs2)C(=O)N2C(C(=O)O)=C(COC(N)=O)CS[C@@H]21` [CEFOXITIN], the MIC with Escherichia coli [6] came out at 512 µg/mL (≈ 1200 µM); against Escherichia coli [7], 256 µg/mL (≈ 599 µM); in the assay on Escherichia coli [8] it was 1 µg/mL (≈ 2.34 µM); with Escherichia coli [9] it was 2 µg/mL (≈ 4.68 µM); in the assay on Escherichia coli [10] it was 32 µg/mL (≈ 74.9 µM); in the assay on Escherichia coli [11] it was 1 µg/mL (≈ 2.34 µM). Also, the MIC was found to be 2 µg/mL (≈ 4.68 µM) in the assay with Escherichia coli [12] and 64 µg/mL (≈ 150 µM) in the assay with Escherichia coli [13]. In addition, the “inhibition zone (IZ)” value in the assay on Escherichia coli [14] came to 10.8 mm; in the assay on Escherichia coli [15], 8.8 mm; in the assay on Escherichia coli [16] it was 10.9 mm; in the assay on Escherichia coli [17] it was 9.3 mm.

Take `CCCC(=O)N[C@H]1/C(=N/OC(=O)Nc2ccccc2)O[C@H](CO)[C@@H](O)[C@@H]1O`: the Ki is 40 µM in assay [1] and 26 µM in the assay filed under Homo sapiens. In assay [3], this molecule yielded a Kinact of 0.26 µM.

On to `CC(C)CC(=O)N[C@H]1/C(=N/OC(=O)Nc2ccccc2)O[C@H](CO)[C@@H](O)[C@@H]1O`, for which the Ki is 190 µM in assay [1] and greater than 1200 µM in the assay filed under Homo sapiens. In assay [2], the Selectivity ratio was 13. The same molecule registered a Kinact in [3] of 15 µM.

In turn, `CC(=O)N[C@H]1c2nc(CC(=O)O)cn2[C@H](CO)[C@@H](O)[C@@H]1O` displayed a Ki in assay [1] of 0.43 µM. Also, in assay [2], the Selectivity ratio turned out to be 0.03. Besides, in assay [18], it took 0.0052 µM to reach half-maximal inhibition (IC50). For the same molecule, the Kinact in [3] amounted to 15 µM.

As to `CC(C)C(=O)N[C@H]1/C(=N/OC(=O)Nc2ccccc2)O[C@H](CO)[C@@H](O)[C@@H]1O`, the results for the Ki (in assay [1]; in the assay filed under Homo sapiens) were 9 µM and 20 µM, respectively. Besides, in [2], the Selectivity ratio was 18. The Kinact in assay [3] was determined as 0.51 µM.

Turning to `CC(=O)N[C@H]1/C(=N/OC(=O)Nc2ccccc2)O[C@H](CO)[C@@H](O)[C@@H]1O`, the Ki in the assay listed under Homo sapiens worked out at 0.036 µM. The molecule further showed a Kinact in assay [3] of 0.048 µM.
